Several values for one entry are separate records, joined by “and”; a condition that tells them apart may be missing. Equal values may be shown once. Read-outs that look alike come from different tables or passages of the source.
Experiments:
human preadipocytes [1] = test: Proliferation of preadipocytes in classical differentiation conditions (DAPI nuclei staining); type: cell-based; conditions: 2 mg/ml; for Cells number at the end of the culture, DAPI staining, Mean: differentiated control 10 118 AU
Method: (§1) Preadipocytes have been isolated from human female hypodermis (body mass index <30 kg/m2 and <45 years old). Preadipocytes have been cultured for 24 h in 100 μl of DMEM-10% Fetal Bovine Serum (FBS) in 96-well plates. Then cells were treated to induce their differentiation in a classical or an inflammatory environment for 13 days.
(§2) To induce the preadipocytes differentiation cells were incubated in a proadipogenic cocktail (PAC) including insulin, glucocorticoid, 3-isobutyl-1-methylxanthine (IBMX), and thiazolinedione in DMEM.
(§3) To induce a fibro-inflammatory environment, cells were treated with an activated human macrophage-conditioned medium (AcMC) prepared in RPMI medium. A treatment with Dexamethasone (DXM) at 100 nM was used as anti-inflammatory response control. At D0: preadipocytes have been treated in the following conditions: • “Undifferentiation”: DMEM+¼ RPMI medium • “Differentiation”: PAC+¼ RPMI medium • “AcMC” i.e. inflammatory condition: PAC+¼ AcMC • “AcMC+DXM”: PAC+[…] AcMC+anti-inflammatory DXM at 100 nM • “AcMc+compounds”: PAC+14 AcMC+compounds to be tested
(§4) All conditions have been performed in triplicate. The medium has been changed every 2 days for 13 days.
The number of cells was determined for each condition by DAPI nuclei staining (nuclei) and expressed in arbitrary unit.

human preadipocytes [2] = test: Total lipid accumulation (AdipoRed staining) in preadipocytes/adipocytes in inflammatory condition; type: cell-based; conditions: for Total Lipid Accumulation (Adipored staining), Mean / Total Lipid Accumulation (Adipored staining), Values: end of the culture; for Total Lipid Accumulation (Adipored staining), Values: individual values
Method: as §1, §2, §3, §4
After 14 days of culture, preadipocytes have been fixed with 4% paraformaldehyde and then stained by AdipoRed™ at room temperature to reveal the intracellular lipid droplets. Quantification of lipid accumulation has been performed by fluorescence intensity measurements using the spectrophotometer Spark (TECAN).
Lipid accumulation and Lipid index were evaluated for each condition. Data are represented in percentage of proinflammatory control condition (AcMC condition).

procollagen I = test: Extracellular secretion of procollagen I by preadipocytes in inflammatory condition (ELISA); type: cell-based, human; conditions: for Procollagen I secretion, Mean / Procollagen I secretion, Values: normalized by cells number (DAPI); for Procollagen I secretion, Values: individual values; for Procollagen I secretion compared to the AcMC control condition fixed at 100%: preadipocytes
Method: as §1, §2, §3, §4
(§5) At D14: during the last 24 h of culture, the medium has been replaced by DMEM/F12 medium in all conditions, to collect cells' secretions.
(§6) After 13 days, the 24 h culture media of the different conditions have been collected at the end of the treatment period. The concentrations of IL-6, procollagen I and MCP1 have been evaluated by ELISA assays using specific kits (for IL-6: DY206, DuoSet ELISA, R&D Systems; for Procollagen I: DY6220-05, DuoSet ELISA, R&D Systems; for MCP1: DY279-05 DuoSet ELISA, R&D Systems) according to the manufacture's recommendations. Values have been normalized to the cell number determined by DAPI staining.
Extracellular secretions of procollagen I by preadipocytes in inflammatory condition Quantity of procollagen secreted in medium was measured and normalized by cell number in each culture condition. Data are represented in percentage of proinflammatory control conditions (AcMC condition).

MCP1 = test: Extracellular secretion of MCP1 by preadipocytes in inflammatory condition (ELISA); type: cell-based, human; conditions: for MCP1 secretion, Mean (%) / MCP1 secretion, Values (%): inflammatory condition, normalized by cells number (Dapi); for MCP1 secretion, Values (%): individual values; for MCP1 secretion compared to the AcMC control condition fixed at 100%: differentiated preadipocytes
Method: as §1, §2, §3, §4, §5, §6
Quantity of MCP1 secreted in medium was measured and was normalized by cell number in each culture condition. Data are represented in percentage of proinflammatory control condition (AcMC condition).

[3] = system: normal human dermal fibroblasts (NHDF); test: Protection of NHDF under UVA irradiation, MTT reduction assay; type: cell-based
Method: The protective effects of compound 6 was assessed in normal human dermal fibroblasts (NHDF). The viability of UVA-irradiated NHDF using a standard MTT reduction assay was tested. Prior to these assays, a preliminary cytotoxicity assay was performed on NHDF, using a standard WST-8 reduction assay and morphological observations with a microscope, in order to determine the concentrations to be tested.
• Cell type: NHDF, Bioalternatives reference PF2 used at the 8th passage • Culture conditions: 37° C., 5% CO2 • Culture medium: DMEM supplemented with L-glutamine 2 mM, Penicillin 50 U/ml • Streptomycin 50 μg/ml, Fetal calf serum (FCS) 10% • Irradiation medium: EBSS supplemented with CaCl2 0.2 g/l, MgSO4 0.2 g/l • Test compound: the compound 6 (MM=356.3 g/mol) was diluted in culture medium at final concentration of 1.25 and 2.5 mg/ml
Fibroblasts were seeded in 96-well plates and cultured in culture medium for 24 hours. The medium was then replaced by culture medium containing or not (irradiated control) the test compounds and the cells were pre-incubated for 24 hours. After pre-incubation, the medium was removed and replaced by irradiation medium and the cells were irradiated with 35 J/cm^2. The lamp used was a SOL500 Sun Simulator equipped with an H1 filter (Dr. Hönle, AG). After irradiation, the medium was removed and replaced by assay medium containing or not (irradiated control) the test compounds and the cells were incubated for 24 hours. A non-irradiated control condition was performed in parallel. All experimental conditions were performed in n=5, except for the control conditions in n=12.
At the end of incubation, the cells were incubated with MTT (tetrazolium salt) reduced in blue formazan crystals by succinate dehydrogenase (mitochondrial enzyme). This transformation is proportional to the enzyme activity. After cell dissociation and formazan crystal solubilization using DMSO, the optical density (OD) of the extracts at 540 nm, proportional to the number of living cells and their metabolic activity, was recorded with a microplate reader (VERSAmax, Molecular Devices).
Raw data were analyzed using Microsoft Excel© software. The inter-group comparisons were performed by an unpaired Student's t-test.
The standard error of the mean (sem) is a measure of how far the sample mean is likely to be from the true population mean. The sem is calculated as the standard deviation (sd) divided by the square root of sample size (n). Standard error of the mean: sem=sd/√n Percentage of viability: viability (%)=(OD sample/OD control)×100
The cell viability (OD 540 nm) from irradiated culture added with tested compound was compared with irradiated control culture and the percentage of viability was calculated.

N[C@H]1CCCN(CC(F)(F)[C@]2(O)O[C@H](CO)[C@H](O)[C@H](O)[C@H]2O)C1=O [Compound 6]
Cells number at the end of the culture, DAPI staining, Mean (human preadipocytes [1]): 13197 AU | Cells number at the end of the culture, DAPI staining, Mean (human preadipocytes [1]; listed as compound 6): 13 197 AU | Cells number at the end of the culture (DAPI staining), Values (human preadipocytes [1]; single replicates): 13454 AU and 12839 AU and 13298 AU | Total Lipid Accumulation (Adipored staining), Mean (human preadipocytes [2]; AcMC + 1 mg/ml): 126.8 % of AcMC condition | Total Lipid Accumulation (Adipored staining), Values (human preadipocytes [2]; AcMC + 1 mg/ml): 130.3 % of AcMC condition and 123.6 % of AcMC condition and 126.5 % of AcMC condition | Total Lipid Accumulation (Adipored staining), Mean (human preadipocytes [2]; AcMC + 2 mg/ml): 137.0 % of AcMC condition | Total Lipid Accumulation (Adipored staining), Values (human preadipocytes [2]; AcMC + 2 mg/ml): 137.2 % of AcMC condition and 132.3 % of AcMC condition and 141.4 % of AcMC condition | Total lipid synthesis (lipid accumulation) in the inflammatory media (human preadipocytes [2]; both concentration): increase lipid synthesis | Procollagen I secretion, Mean (procollagen I; AcMC + 1 mg/ml): 49.9 % of AcMC condition | Procollagen I secretion, Values (procollagen I; AcMC + 1 mg/ml): 39.3 % of AcMC condition and 57.7 % of AcMC condition and 52.7 % of AcMC condition | Procollagen I secretion, Mean (procollagen I; AcMC + 2 mg/ml): 46.2 % of AcMC condition | Procollagen I secretion, Values (procollagen I; AcMC + 2 mg/ml): 47.0 % of AcMC condition and 40.2 % of AcMC condition and 51.2 % of AcMC condition | Procollagen I secretion compared to the AcMC control condition fixed at 100% (procollagen I; 1 mg/ml): 49.9% | Procollagen I secretion compared to the AcMC control condition fixed at 100% (procollagen I; 2 mg/ml): 46.2% | MCP1 secretion, Mean (%) (MCP1; 1 mg/ml): 71 % of AcMC condition | MCP1 secretion, Values (%) (MCP1; 1 mg/ml): 58.8 % of AcMC condition and 67.5 % of AcMC condition and 85.6 % of AcMC condition | MCP1 secretion, Mean (%) (MCP1; 2 mg/ml): 65 % of AcMC condition | MCP1 secretion, Values (%) (MCP1; 2 mg/ml): 62.8 % of AcMC condition and 65.6 % of AcMC condition and 67.5 % of AcMC condition | MCP1 secretion compared to the AcMC control condition fixed at 100% (MCP1; 1 mg/ml): 71% | MCP1 secretion compared to the AcMC control condition fixed at 100% (MCP1; 2 mg/ml): 65% | Mean OD (540 nm) ([3]; 1.25 mg/ml, UVA 35 J/cm^2, MTT): 0.13 | Mean OD (540 nm) ([3]; 2.5 mg/ml, UVA 35 J/cm^2, MTT): 0.15 | viability at 1250 µg/mL ([3]; Homo sapiens, light or radiation study, 1.25 mg/ml, UVA 35 J/cm^2, MTT, read-out: % Irradiated control (viability)): 116% | viability at 2500 µg/mL ([3]; Homo sapiens, light or radiation study, 2.5 mg/ml, UVA 35 J/cm^2, MTT, read-out: % Irradiated control (viability)): 130% | viability at 2500 µg/mL ([3]; Homo sapiens, light or radiation study, UVA 35 J/cm2, 2.5 mg/ml, read-out: Cell viability, % of the irradiated control): 130%
